# Assay results published in US20090170899A1, “Stimulators of 5-HT4 receptors and uses thereof” (priority 2004, published 2009).
# Entries after “also recorded” stand apart in the source; their conditions may differ.
# Tests used:
# Type in all cases: in vivo, rat
# [1] = tested on: hippocampal CA3 pyramidal neurons; assay: Acute i.v. prucalopride on firing of hippocampal CA3 pyramidal neurons, with microiontophoresis; settings: microiontophoretic application, 1 nA
# Description: FIGS. 9A to 9D. FIGS. 9A and 9C show a typical example (integrated firing rate histogram) of the response of a single hippocampal pyramidal neuron of the CA3 sub-field to an acute, intravenous administration of the selective 5-HT4 agonist prucalopride (1000 μg/kg), and its reversal by local, microiontophoretic application of the selective 5-HT1A antagonist WAY 100635 (A), or systemic injection of the selective 5-HT4 antagonist GR 125487 (1000 μg/kg, i.v.) (C). Single-cell extracellular recordings were performed in the CA3 region of chloral-hydrate anaesthetized rats by using multiple-barrel glass microelectrodes, combined with microiontophoretic pumps (with the central barrel used for recordings). Pyramidal neurons were identified according to the classical criteria (see Example 5, experimental procedures). FIGS. 9B and 9D show a summary of the effects as for FIGS. 9A and 9C, respectively. Bar histograms represent the mean (S.E.M.) percentage effect, calculated for each neuron with respect to its basal firing rate (i.e. 100% value), and the number in each column represents the number of neurons tested. *p<0.05 vs basal value, one-way ANOVA.
# (§1) Microiontophoresis and extracellular recordings from hippocampal CA3 pyramidal neurons. Recording and microiontophoresis were performed with five-barreled glass micropipettes broken back to 8-12 μm under microscope control. The central barrel was filled with the same solution as in the DRN and was used for extracellular unitary recordings. Pyramidal neurons were identified by their large amplitude (0.5-1.2 mV) and long-duration (0.8-1.2 ms) simple spikes alternating with complex spike discharges (Kandel and Spencer, 1961). The side barrels contained the following solutions: quisqualate (1.5 mM in 200 mM NaCl, pH 8), WAY 100635 (15 mM in 200 mM NaCl, pH 4), and 2 M NaCl used for automatic current balancing. Rats were mounted in the stereotaxic apparatus and the micropipettes were lowered at 4.2 mm lateral and 4.2 anterior to lambda into the CA3 sub-region of the dorsal hippocampus.
# Involvement of endogenous 5-HT and hippocampal 5-HT1A receptors in the effect of 5-HT4 agonists. […] This interpretation is consistent with our own previous findings, showing that both acute and chronic (3-day) administration of the same compounds augment DRN 5-HT neuronal firing activity (Lucas and Debonnel, 2002; Lucas et al., 2005). It is also in keeping with observations from a single in vivo microdialysis study, where acute systemic injection of preferential 5-HT4 agonists increased hippocampal 5-HT efflux (Ge and Barnes, 1996). To further address this possibility, two additional series of experiments were conducted. First, the role of endogenous 5-HT was assessed by using the same protocol as above, in rats co-treated with RS 67333 (or its vehicle) and the 5-HT depleter para-chlorophenylalanine (pCPA). […] The ejection currents of quisqualate needed to activate CA3 pyramidal neurons were, in this case, similar to those used in controls (0 to −2 nA, FIG. 8C). We then tested the ability of a local application of WAY 100635, directly into the CA3 subfield through the use of microiontophoresis, to modify the effect of a 5-HT4 agonist. We chose not to use the previous protocol (i.e. chronic treatments), because, as shown above, the required quisqualate currents differ between the experimental groups. Even though all currents were balanced, it was not possible to exclude the possibility that the amount of quisqualate present in the vicinity of the electrode may have an influence on the quantity of WAY 100635 actually ejected, and/or on its ability to act on pyramidal neurons. For this reason, prucalopride was used acutely in naïve rats, at a dose known to induce a significant augmentation of DRN 5-HT neuronal activity (1000 μg/kg, i.v.) (Lucas and Debonnel, 2002). […]
# [2] = tested on: hippocampal CA3 pyramidal neurons; assay: Response of hippocampal CA3 pyramidal neurons to WAY 100635 after 3-day treatments (5-HT1A tonus)
# Description: FIGS. 8A to 8C. […] Single-cell extracellular recordings were performed in the CA3 region of chloral-hydrate anaesthetized rats by using multiple-barrel glass microelectrodes, combined with microiontophoretic pumps (with the central barrel used for recordings). Pyramidal neurons were identified according to the classical criteria (see Example 5, the experimental procedures). The 5-HT4 agonists were administered through the use of osmotic minipumps, inserted subcutaneously in the region of the back. Recordings were performed with the minipumps still in place. *p<0.05, **p<0.01, ***p<0.001 vs control, Dunnett's test. […] FIG. 8C is a typical example showing the response of a single pyramidal neuron to cumulative doses of WAY 100635, in a rat co-administered with RS 67333 (same treatment as above for FIG. 8A) and the 5-HT depleter para-chlorophenylalanine (pCPA; 150 mg/kg, i.p. once daily 72, 48 and 24 h before the recordings).
# Drugs and Chemicals. The following compounds were used: GR 125487 sulphamate, prucalopride monohydrochloride, citalopram hydrobromide (gifts from Glaxo, Janssen and Lundbeck laboratories, respectively), RS 67333 hydrochloride (Tocris Cookson Inc., Ellisville, Mo., USA), WAY 100635 hydrochloride (Research Biochemicals, Natick, Mass., USA), pCPA methyl ester hydrochloride, BrdU (Sigma-Aldrich Canada, Oakville, Ontario, Canada). All compounds were diluted in distilled water. All drug dosages refer to the free base. For chronic treatments, prucalopride (2.5 mg/kg/day), RS 67333 (1.5 mg/kg/day) or the vehicle were delivered through osmotic minipumps (Alza, Palo Alto, Calif., USA), inserted subcutaneously in the region of the back under short-duration (≦5 min) halothane anesthesia. The 5-HT depleter PCPA was administered once daily at the dose of 150 mg/kg, i.p., 72, 48 and 24 h before the recordings. BrdU treatments consisted of two administrations per day (50 mg/kg, i.p. each, 8 h interval), starting from the day of minipump insertion until day 2 post-surgery.
# as §1
# The firing activity of dorsal hippocampus pyramidal neurons was then recorded in the CA3 subfield, before and after systemic administration of the selective 5-HTLA antagonist WAY 100635.
# DRN 5-HT1A autoreceptors = assay: Citalopram i.v. dose-response on DRN 5-HT neuron firing (5-HT1A autoreceptor sensitivity) after 3-day RS 67333
# Description: FIG. 7 is a dose-response curve illustrating the effect of cumulative intravenous doses of citalopram on DRN 5-HT neuron average (mean±S.E.M.) firing rate, expressed as percentage of basal activity, in rats treated with the selective 5-HT4 agonist RS 67333 (1.5 mg/kg/day, 3 days, n=5) or its vehicle (n=5). Single-cell extracellular recordings were performed in the DRN of chloral-hydrate anaesthetized rats by using single-barrel glass microelectrodes, and 5-HT neurons were identified according to the classical criteria (see Example 5, the experimental procedures). RS 67333 was administered through the use of osmotic minipumps, inserted subcutaneously in the region of the back. Recordings were performed with the minipumps still in place.
# Extracellular recordings of DRN 5-HT neurons. Recordings were performed using single-barreled glass micropipettes. Electrodes were filled with a 2 M NaCl solution saturated with Fast Green FCF, resulting in an impedance of 2-5 MΩ. Rats were anaesthetized with chloral hydrate (400 mg/kg, i.p.) and placed in a stereotaxic frame. A burr hole was drilled on the midline 1 mm anterior to lambda. DRN 5-HT neurons were encountered over a distance of 1 mm starting immediately below the ventral border of the Sylvius aqueduct. These neurons were identified using the classical criteria: a slow (0.5-2.5 Hz) and regular firing rate and long-duration (0.8-1.2 ms) positive action potentials (Aghajanian, 1978). At the end of the experiments, a 25 μA cathodal current was passed through the recording electrode to leave a Fast Green deposit at the recording site. Animals were sacrificed with an i.v. overdose of chloral hydrate, and the brain removed. The site of recording was verified under microscope immediately after experiments.
# Statistical analysis. The comparison between the two slopes in FIG. 7 was performed by using the GraphPad Prism software (Version 3.03, GraphPad Software Inc.). All other statistics were performed by using one-way ANOVAs, followed by the Dunnett's test when multiple comparisons were necessary.
# Effect of a 3-day treatment with a 5-HT4 agonist on DRN 5-HT1A autoreceptors sensitivity. […] In rats treated with the selective 5-HT4 agonist RS 67333 (Eglen et al., 1995) (1.5 mg/kg/day), these values were shifted to the right, reaching 226±26 and 430 μg/kg, respectively. […] The acute inhibitory effect produced by a SSRI on DRN 5-HT neuronal activity results from increased extracellular levels of 5-HT, due to the blockade of its reuptake, and is selectively related to the stimulation of somatodendritic 5-HT1A autoreceptors (Hajos et al., 1999). The degree of inhibition induced by citalopram has therefore been used as a reliable index of their sensitivity (Arborelius et al., 1999, 2004; Sanchez et al., 2003). It appears that a 3-day treatment with a 5-HT4 receptor agonist is sufficient to desensitize 5-HT1A autoreceptors in the DRN.
# [3] = Forced swimming test (FST)
# Text: The “forced swimming test” (FST) is a behavioural test for rodents, which predicts the efficacy of antidepressant drugs (Porsolt et al., 1977; Lucki, 1997). […] The widespread use of this model is largely a result of its ease of use, reliability across laboratories and ability to detect a broad spectrum of antidepressant agents. The test is based on the observation that rats, following initial escape-oriented movements (climbing and swimming), develop an immobile posture when placed in an inescapable cylinder of water. If they are replaced in the same testing apparatus 24 h later, they resume this immobile posture quickly. The immobility is thought to reflect either a failure of persistence in escape-directed behavior (i.e. behavioral despair) or the development of passive behavior that disengages the animal from active forms of coping with stressful stimuli. If antidepressant treatments are given between the two exposures, the subjects will actively persist engaging in escape-directed behaviors for longer periods of time than after vehicle treatment. This will be reflected by a reduction of immobility time, and by an increase of climbing attempts. […] The combination effect of a particular 5-HT4 agonist and a SSRI may be evaluated using the FST model.
# Experiments were carried out in male Sprague-Dawley rats (Charles River, St Constant, Québec). We used the FST as previously described (Porsolt et al., 1977). Briefly, the rats experienced a pretest session followed 24 hours later by a test session. For both the pretest and the test sessions, conducted under low illumination (12 lx), the rats were placed in a plastic cylindrical tank (50 cm high by 20 cm in diameter) filled with water at […], with a depth of 40 cm, for which the hind limbs could not reach the tank floor. In all experiments, the pretest was carried out for 15 min and the test for 5 min in the same tank but only the last 4 min were analyzed. Following either pretest or test sessions, rats were dried with a towel and kept warm for 30 min before returning in their home cage. A digital camera recorded on line animal's behavior during the FST, and both time of immobility and climbing attempts were counted. Citalopram hydrobromide (10 mg/kg, i.p.) or paroxetine (10 mg/kg, i.p.) and prucalopride hydrochloride (2.5 mg/kg, i.p.) or RS 67333 hydrochloride (1.5 mg/kg, i.p.) were administered simultaneously 30 minutes before the test session. Animals were divided into 4 groups: vehicle/vehicle, 5-HT4 agonist/vehicle, vehicle/SSRI and 5-HT4 agonist/SSRI. For each compound, distilled water was used as the vehicle. All drug dosages refer to the free base.
# Behavioral experiments. We used the FST as previously described (Porsolt et al., 1977). Briefly, rats experienced a pre-test session followed 24 hours later by a test session. For both the pre-test and the test sessions, conducted under low illumination (12 lx), the animals were placed in a plastic cylindrical tank (50 cm high by 20 cm in diameter) filled with water at […], with a depth of 40 cm, for which the hind limbs could not reach the tank floor. In all experiments, the pre-test was carried out for 15 min and the test for 5 min in the same tank but the last 4 min only were analyzed. Prucalopride (2.5 mg/kg, i.p.) and RS 67333 (1.5 mg/kg, i.p.) were administered 30 min before the test session. Following either pre-test or test sessions, rats were dried with a towel and kept warm for 30 min before returning in their home cage. A camera coupled with a computer recorded on line animal behavior during the FST through a specialized digital interface (Videotrack, ViewPoint, Lyon, France). This interface underscored on line the subtraction of video frames. Immobility time in FST was derived from the number of frames (every 40 ms) being below a predefined threshold over FST duration.
# [4] = rats treated with RS 67333 1.5 mg/kg/day, 3 days
structure (smiles),measurement,setting,value
COc1ccccc1N1CCN(CCN(C(=O)C2CCCCC2)c2ccccn2)CC1 [WAY 100635],effect of local WAY 100635 by itself,[1],devoid of any effect
same,effect of local WAY 100635 on the inhibition by prucalopride,[1],totally reversed
same,effect of WAY 100635 on CA3 pyramidal neurons,"[2]; rat, in vivo, iv",no effect; also recorded: without any effect
"N[C@@H](Cc1ccc(Cl)cc1)C(=O)O (racemic) [pCPA, para-chlorophenylalanine]",quisqualate ejection currents needed to activate CA3 pyramidal neurons,[2]; rats co-treated with RS 67333 and pCPA,0 to −2 nA
same,effect of pCPA on the facilitory action of WAY 100635,"[2]; rats treated with RS 67333, pCPA 150 mg/kg i.p. 72, 48 and 24 h before",totally abolished
same,effect of pCPA on CA3 neuron firing activity and response to WAY 100635,[2]; vehicle group,no effect per se
CN(C)CCCC1(c2ccc(F)cc2)OCc2cc(C#N)ccc21 (centres unmarked) [citalopram],slope of the dose-response curve,"DRN 5-HT1A autoreceptors; RS 67333 group (1.5 mg/kg/day, 3 days)",−0.25±0.02
same,ED50 of inhibition of 5-HT neuronal firing rate,DRN 5-HT1A autoreceptors; naïve (vehicle) animals,130 ± 30 µg/kg
same,ED100 of inhibition of 5-HT neuronal firing rate,DRN 5-HT1A autoreceptors; naïve (vehicle) animals,280 µg/kg
same,ED50 of inhibition of 5-HT neuronal firing rate,DRN 5-HT1A autoreceptors; [4],226 ± 26 µg/kg
same,ED100 of inhibition of 5-HT neuronal firing rate,DRN 5-HT1A autoreceptors; [4],430 µg/kg
same,slope of the dose-response curve,DRN 5-HT1A autoreceptors; vehicle group,−0.34±0.03
same,change of total time of immobility in FST,"[3]; Example 3, single i.p. 30 min before test, citalopram or paroxetine 10 mg/kg, prucalopride 2.5 mg/kg, RS 67333 1.5 mg/kg",−34%
same,effect on immobility in FST,"[3]; Example 4, citalopram 3 mg/kg i.p.",no effect
